From the Kinase Knowledgebase extract (Sharma et al. 2016)

The molecules below were run against MAPK14 (human) (UniProt Q16539) (assay: Inhibition of MAPK14 Kinase Activity).
Sequence of MAPK14 (human) (Q16539 whole entry, looked up): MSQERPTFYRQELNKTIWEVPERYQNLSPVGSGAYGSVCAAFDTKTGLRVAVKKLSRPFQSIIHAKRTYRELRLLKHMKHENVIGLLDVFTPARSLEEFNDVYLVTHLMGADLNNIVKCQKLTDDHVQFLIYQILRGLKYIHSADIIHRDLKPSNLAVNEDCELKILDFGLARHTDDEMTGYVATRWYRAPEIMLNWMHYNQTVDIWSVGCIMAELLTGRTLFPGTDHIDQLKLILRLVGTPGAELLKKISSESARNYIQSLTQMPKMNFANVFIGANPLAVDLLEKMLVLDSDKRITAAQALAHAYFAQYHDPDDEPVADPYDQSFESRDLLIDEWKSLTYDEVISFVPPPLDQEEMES
Molecule `CC(CC(=O)N1CCN(Cc2nc(-c3ccc(F)cc3)c(-c3nc(C(=O)NC(C)C)cs3)o2)CC1)CC(C)(C)C` (centres undefined) has an IC50 of at most 1000 nM.
Work on `CC(C)NC(=O)c1csc(-c2oc(CN3CCN(C(=O)C4CCCCC4)CC3)nc2-c2ccc(F)cc2)n1` yielded an IC50 of at most 1000 nM.
With `COc1ccc(CNC(=O)c2csc(-c3sc(C)nc3-c3ccc(F)cc3)n2)cc1` the IC50 was at most 1000 nM.
`CC(C)NC(=O)c1csc(-c2oc(CN3CCN(C(=O)c4cc([N+](=O)[O-])ccc4O)CC3)nc2-c2ccc(F)cc2)n1` was tested, and the IC50 was at most 1000 nM.
For `Cc1nc(-c2ccc(F)cc2)c(-c2nc(C(=O)NCc3ccc(Cl)cc3)cs2)s1`, the IC50 was at most 1000 nM.
With `Cc1cc(C)c(C(=O)N2CCN(Cc3nc(-c4ccc(F)cc4)c(-c4nc(C(=O)NC(C)C)cs4)o3)CC2)c(C)c1` the IC50 was at most 1000 nM.
`CC(C)NC(=O)c1csc(-c2oc(CNC(=O)C(O)CCl)nc2-c2ccc(F)cc2)n1` (centres undefined) was tested, and the IC50 was at most 1000 nM.
`Cc1[nH]nc(-c2ccc(F)cc2)c1-c1nc(C(=O)NCc2ccncc2)cs1` gave an IC50 of at most 1000 nM.
`CC(C)NC(=O)c1csc(-c2c(-c3ccc(F)cc3)noc2CNC(=O)C(F)(F)F)n1` was tested, and the IC50 was at most 1000 nM.
Molecule `Cc1onc(-c2ccc(F)cc2Cl)c1-c1ccn(C(=O)NC(C)C)n1` has an IC50 of at most 1000 nM.
Molecule `CC(C)NC(=O)c1csc(-c2c(-c3ccc(F)cc3)n[nH]c2C2CCN(C(=O)c3cc(O)ccc3[N+](=O)[O-])CC2)n1` has an IC50 of at most 1000 nM.
`CC(=O)N1CCC(n2cnc(-c3ccc(F)cc3)c2-c2nc(C(=O)NC(C)C)cs2)CC1` was tested, and the IC50 was at most 1000 nM.
`CC(C)NC(=O)c1csc(-c2oc(CN3CCN(C(=O)c4ccccc4Cc4ccccc4)CC3)nc2-c2ccc(F)cc2)n1` was tested, and the IC50 was at most 1000 nM.
Work on `CC(C)NC(=O)c1csc(-c2oc(CN3CCN(C(=O)c4ccncc4)CC3)nc2-c2ccc(F)cc2)n1` yielded an IC50 of at most 1000 nM.
`CC(C)NC(=O)c1csc(-c2c(-c3ccc(F)cc3)n[nH]c2C2CCN(C(=O)C3CN(C(=O)OC(C)(C)C)CCN3)CC2)n1` (centres undefined) showed an IC50 of at most 1000 nM.
In the case of `COc1cc(CN(C)C(=O)c2csc(-c3sc(C)nc3-c3ccc(F)cc3)n2)cc(OC)c1OC`, the IC50 is reported as at most 1000 nM.
`CC(C)NC(=O)c1csc(-c2oc(CNC(=O)Cc3cccc4ccccc34)nc2-c2ccc(F)cc2)n1` showed an IC50 of at most 1000 nM.
With `CC(C)NC(=O)c1csc(-c2[nH]c(CN(C)C)nc2-c2ccc(F)cc2)n1` the IC50 was at most 1000 nM.
Molecule `CCOC(=O)CC(C)NC(=O)c1csc(-c2sc(C)nc2-c2ccc(F)cc2)n1` (centres undefined) has an IC50 of at most 1000 nM.
`CC(C)NC(=O)c1csc(-c2oc(CNC(=O)c3cc(Cl)c(O)c(Cl)c3)nc2-c2ccc(F)cc2)n1` gave an IC50 of at most 1000 nM.
For `CCOc1ccccc1CNC(=O)c1csc(-c2sc(C)nc2-c2ccc(F)cc2)n1`, the IC50 was at most 1000 nM.
In the case of `CC(C)NC(=O)c1csc(-c2c(-c3ccc(F)cc3)n[nH]c2C2CCN(C(=O)C3CCCO3)CC2)n1` (centres undefined), the IC50 is reported as at most 1000 nM.
For `CC(C)NC(=O)c1csc(-c2oc(CNC(=O)c3ccc(Cl)nc3)nc2-c2ccc(F)cc2)n1`, the IC50 was at most 1000 nM.
`CC(C)NC(=O)c1csc(-c2c(-c3ccccc3)n[nH]c2C2CCN(C(=O)c3ccc(Cl)c([N+](=O)[O-])c3)CC2)n1` showed an IC50 of at most 1000 nM.
With `CC(C)NC(=O)c1csc(-c2oc(CNC(=O)C=Cc3ccc(Cl)cc3)nc2-c2ccc(F)cc2)n1` the IC50 was at most 1000 nM.
With `CC(C)NC(=O)c1csc(-c2c(-c3ccc(F)cc3)n[nH]c2C2CCN(C(=O)c3ccccc3C=O)CC2)n1` the IC50 was at most 1000 nM.
`CC(C)NC(=O)c1csc(-c2oc(CNC(=O)c3cc4ccccc4s3)nc2-c2ccc(F)cc2)n1` gave an IC50 of at most 1000 nM.
`CC(C)NC(=O)c1csc(-c2oc(CN3CCN(C(=O)c4cccc5ccccc45)CC3)nc2-c2ccc(F)cc2)n1` gave an IC50 of at most 1000 nM.
`Cc1nc(-c2ccc(F)cc2)c(-c2nc(C(=O)N[C@H](C)c3ccccc3)cs2)s1` showed an IC50 of at most 1000 nM.
With `Cc1nc(-c2ccc(F)cc2)c(-c2nc(C(=O)Nc3ccc4c(c3)OCO4)cs2)s1` the IC50 was at most 1000 nM.
For `CCOc1ccc2ccccc2c1C(=O)N1CCN(Cc2nc(-c3ccc(F)cc3)c(-c3nc(C(=O)NC(C)C)cs3)o2)CC1`, the IC50 was at most 1000 nM.
Work on `CC(C)NC(=O)c1csc(-c2[nH]c(CN3CCNCC3)nc2-c2ccc(F)cc2)n1` yielded an IC50 of at most 1000 nM.
For `Cc1[nH]nc(-c2ccc(F)cc2)c1-c1nc(C(=O)NCc2cccnc2)cs1`, the IC50 was at most 1000 nM.
With `Cc1nc(-c2ccc(F)cc2)c(-c2nc(C(=O)NCC(C)c3ccccc3)cs2)s1` (centres undefined) the IC50 was at most 1000 nM.
